Assay results taken from US20160136127A1, “USE OF TETRAHYDROCANNABINOL AND/OR CANNABIDIOL FOR INCREASING RADIOSENSITVITY IN THE TREATMENT OF A BRAIN TUMOUR” (GW PHARMA LIMITED, priority 2013, published 2016).

Tests used:
[1] = tested on: U87 human glioma cells subcutaneously implanted to nude mice; conditions: cited from earlier work
[2] = tested on: U87 and U373 human glioma cell lines; conditions: cited from earlier work
[3] = tested on: glioma cell lines T98G, U87MG and GL261; assay: Clonogenic cell survival assay after irradiation (radiosensitivity of glioma cell lines); type: cell-based, human (T98G, U87MG); mouse (GL261); conditions: pure phytocannabinoid used alone, increasing concentrations, 24 h prior to irradiation (0, 1, 2 and 5 Gy, Cs137); FIG. 2 / FIG. 3
Description: The human glioma cell lines T98G and U87MG were obtained from ATCC, and were lines derived from patients with a glioblastoma multiforme tumour and a glioblastoma astrocytoma respectively.
The mouse glioma cell line GL261, which is syngeneic to the C57BL/6 mouse was acquired from the NCI.
Cells were exposed to increasing doses of irradiation and then clonogenic cell survival assays were performed. The ability of the cells to survive an irradiation insult and go on and divide indefinitely forming a colony was assessed in this manner and used as our read-out of radiosensitivity.
(§1) Cells were initially seeded into flasks and left to adhere overnight. […] Cells were then harvested, counted and seeded again at increasing densities in 6-well plates, adjusting the density appropriately for the radiation dose, and then incubated for approximately 14 days. […] Colonies consisting of >50 cells were counted and calculated as a proportion of the number of cells initially seeded (surviving fraction). […]
as §1, with “surviving fraction was calculated.” for “calculated as a proportion of the number of cells initially seeded (surviving fraction).”

Row | SMILES | anti-proliferative effects in-vivo [1] | anti-proliferative effects in-vitro [2] | effect on radiosensitivity (surviving fraction) [3]
1 | C=C(C)[C@@H]1CCC(C)=C[C@H]1c1c(O)cc(CCCCC)cc1O [CBD, Cannabidiol] | anti-proliferative effects | anti-proliferative effects | did not appear to alter the radiosensitivity
2 | CCCCCc1cc(O)c2c(c1)OC(C)(C)[C@@H]1CCC(C)=C[C@@H]21 [THC, Tetrahydrocannabinol] | – | – | did not appear to alter the radiosensitivity
